Experimental data: PubChem BioAssay (NCI)
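Five concentrations, 48 hours, 96-well plates. TGI: total growth inhibition.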

What was measured:
Assay in all cases: NCI-60 cell line screen, 48 h
XF 498 CNS = tested on: XF 498 CNS
SNB-75 CNS = tested on: SNB-75 CNS
DMS 273 small cell lung = tested on: DMS 273 small cell lung
HOP-62 NSCLC = tested on: HOP-62 NSCLC
HCT-15 colon = tested on: HCT-15 colon
CCRF-CEM leukemia = tested on: CCRF-CEM leukemia
DMS 114 small cell lung = tested on: DMS 114 small cell lung
HT29 colon = tested on: HT29 colon
OVCAR-5 ovarian = tested on: OVCAR-5 ovarian
M14 melanoma = tested on: M14 melanoma
IGROV1 ovarian = tested on: IGROV1 ovarian
RPMI-8226 leukemia = tested on: RPMI-8226 leukemia
ACHN renal = tested on: ACHN renal
SK-MEL-2 melanoma = tested on: SK-MEL-2 melanoma
SF-268 CNS = tested on: SF-268 CNS
CAKI-1 renal = tested on: CAKI-1 renal
TK-10 renal = tested on: TK-10 renal
UACC-257 melanoma = tested on: UACC-257 melanoma
NCI-H460 lung = tested on: NCI-H460 lung
NCI-H226 lung = tested on: NCI-H226 lung
SK-OV-3 ovarian = tested on: SK-OV-3 ovarian
SF-539 CNS = tested on: SF-539 CNS
HOP-18 NSCLC = tested on: HOP-18 NSCLC
UO-31 renal = tested on: UO-31 renal
SNB-78 CNS = tested on: SNB-78 CNS
786-0 renal = tested on: 786-0 renal
HCT-116 colon = tested on: HCT-116 colon
RXF 393 renal = tested on: RXF 393 renal
A498 renal = tested on: A498 renal
LOX IMVI melanoma = tested on: LOX IMVI melanoma
HCC-2998 colon = tested on: HCC-2998 colon
NCI-H522 lung = tested on: NCI-H522 lung
MOLT-4 leukemia = tested on: MOLT-4 leukemia
OVCAR-8 ovarian = tested on: OVCAR-8 ovarian
OVCAR-4 ovarian = tested on: OVCAR-4 ovarian
M19-MEL melanoma = tested on: M19-MEL melanoma
SNB-19 CNS = tested on: SNB-19 CNS
SR leukemia = tested on: SR leukemia
SK-MEL-5 melanoma = tested on: SK-MEL-5 melanoma
KM12 colon = tested on: KM12 colon
SF-295 CNS = tested on: SF-295 CNS
UACC-62 melanoma = tested on: UACC-62 melanoma
SN12C renal = tested on: SN12C renal
KM20L2 colon = tested on: KM20L2 colon
DLD-1 colon = tested on: DLD-1 colon
MALME-3M melanoma = tested on: MALME-3M melanoma
EKVX NSCLC = tested on: EKVX NSCLC
A549 NSCLC = tested on: A549 NSCLC
OVCAR-3 ovarian = tested on: OVCAR-3 ovarian
K-562 leukemia = tested on: K-562 leukemia
SK-MEL-28 melanoma = tested on: SK-MEL-28 melanoma
SW-620 colon = tested on: SW-620 colon
LXFL 529 NSCLC = tested on: LXFL 529 NSCLC
NCI-H23 lung = tested on: NCI-H23 lung
HOP-92 NSCLC = tested on: HOP-92 NSCLC
U251 CNS = tested on: U251 CNS
HL-60(TB) leukemia = tested on: HL-60(TB) leukemia
RXF-631 renal = tested on: RXF-631 renal
COLO 205 colon = tested on: COLO 205 colon

COc1cc2c[n+](C)c3c4cc(OC)c(OC)cc4c(OCCCCCCCCOc4cc5c6cc(OC)c(OC)cc6c[n+](C)c5c5cc(OC)c(OC)cc45)cc3c2cc1OC
TGI (XF 498 CNS): > 100 µM
TGI (SNB-75 CNS): > 100 µM
TGI (DMS 273 small cell lung): > 100 µM
TGI (HOP-62 NSCLC): > 100 µM
TGI (HCT-15 colon): > 100 µM
TGI (CCRF-CEM leukemia): > 100 µM
TGI (DMS 114 small cell lung): > 100 µM
TGI (HT29 colon): > 100 µM
TGI (OVCAR-5 ovarian): > 100 µM
TGI (M14 melanoma): > 100 µM
TGI (IGROV1 ovarian): > 100 µM
TGI (RPMI-8226 leukemia): > 100 µM
TGI (ACHN renal): > 100 µM
TGI (SK-MEL-2 melanoma): > 100 µM
TGI (SF-268 CNS): > 100 µM
TGI (CAKI-1 renal): > 100 µM
TGI (TK-10 renal): > 100 µM
TGI (UACC-257 melanoma): > 100 µM
TGI (NCI-H460 lung): > 100 µM
TGI (NCI-H226 lung): > 100 µM
TGI (SK-OV-3 ovarian): > 100 µM
TGI (SF-539 CNS): > 100 µM
TGI (HOP-18 NSCLC): > 100 µM
TGI (UO-31 renal): > 100 µM
TGI (SNB-78 CNS): > 100 µM
TGI (786-0 renal): > 100 µM
TGI (HCT-116 colon): > 100 µM
TGI (RXF 393 renal): > 100 µM
TGI (A498 renal): > 100 µM
TGI (LOX IMVI melanoma): > 100 µM
TGI (HCC-2998 colon): > 100 µM
TGI (NCI-H522 lung): > 100 µM
TGI (MOLT-4 leukemia): > 100 µM
TGI (OVCAR-8 ovarian): > 100 µM
TGI (OVCAR-4 ovarian): > 100 µM
TGI (M19-MEL melanoma): > 100 µM
TGI (SNB-19 CNS): 66.3 µM
TGI (SR leukemia): > 100 µM
TGI (SK-MEL-5 melanoma): > 100 µM
TGI (KM12 colon): > 100 µM
TGI (SF-295 CNS): > 100 µM
TGI (UACC-62 melanoma): > 100 µM
TGI (SN12C renal): > 100 µM
TGI (KM20L2 colon): > 100 µM
TGI (DLD-1 colon): > 100 µM
TGI (MALME-3M melanoma): > 100 µM
TGI (EKVX NSCLC): > 100 µM
TGI (A549 NSCLC): > 100 µM
TGI (OVCAR-3 ovarian): > 100 µM
TGI (K-562 leukemia): > 100 µM
TGI (SK-MEL-28 melanoma): > 100 µM
TGI (SW-620 colon): > 100 µM
TGI (LXFL 529 NSCLC): > 100 µM
TGI (NCI-H23 lung): > 100 µM
TGI (HOP-92 NSCLC): > 100 µM
TGI (U251 CNS): > 100 µM
TGI (HL-60(TB) leukemia): > 100 µM

COc1ccc(NC(=O)CC(=O)n2nc(-c3ccccc3)c(N=Nc3ccccc3C(=O)O)c2-c2ccccc2)cc1
TGI (DMS 273 small cell lung): > 100 µM
TGI (HOP-62 NSCLC): > 100 µM
TGI (HCT-15 colon): > 100 µM
TGI (CCRF-CEM leukemia): > 100 µM
TGI (DMS 114 small cell lung): > 100 µM
TGI (OVCAR-5 ovarian): > 100 µM
TGI (IGROV1 ovarian): > 100 µM
TGI (RPMI-8226 leukemia): > 100 µM
TGI (ACHN renal): > 100 µM
TGI (SK-MEL-2 melanoma): > 100 µM
TGI (SF-268 CNS): > 100 µM
TGI (CAKI-1 renal): > 100 µM
TGI (TK-10 renal): > 100 µM
TGI (NCI-H226 lung): > 100 µM
TGI (SK-OV-3 ovarian): 31.8 µM
TGI (SF-539 CNS): > 100 µM
TGI (UO-31 renal): > 100 µM
TGI (786-0 renal): 70.8 µM
TGI (HCT-116 colon): > 100 µM
TGI (RXF 393 renal): 90.7 µM
TGI (LOX IMVI melanoma): > 100 µM
TGI (HCC-2998 colon): > 100 µM
TGI (NCI-H522 lung): > 100 µM
TGI (MOLT-4 leukemia): > 100 µM
TGI (OVCAR-8 ovarian): 78.9 µM
TGI (RXF-631 renal): > 100 µM
TGI (OVCAR-4 ovarian): > 100 µM
TGI (M19-MEL melanoma): > 100 µM
TGI (SNB-19 CNS): > 100 µM
TGI (SR leukemia): > 100 µM
TGI (SK-MEL-5 melanoma): > 100 µM
TGI (KM12 colon): > 100 µM
TGI (SF-295 CNS): > 100 µM
TGI (UACC-62 melanoma): > 100 µM
TGI (SN12C renal): > 100 µM
TGI (KM20L2 colon): > 100 µM
TGI (COLO 205 colon): > 100 µM
TGI (DLD-1 colon): > 100 µM
TGI (EKVX NSCLC): > 100 µM
TGI (A549 NSCLC): > 100 µM
TGI (OVCAR-3 ovarian): > 100 µM
TGI (K-562 leukemia): > 100 µM
TGI (SK-MEL-28 melanoma): > 100 µM
TGI (SW-620 colon): > 100 µM
TGI (LXFL 529 NSCLC): > 100 µM
TGI (NCI-H23 lung): > 100 µM
TGI (HOP-92 NSCLC): 41.4 µM
TGI (U251 CNS): > 100 µM

CN(C)CCN(C)CCC(=O)/C=C/c1ccccc1
TGI (XF 498 CNS): 49.6 µM
TGI (SNB-75 CNS): > 60.8 µM
TGI (DMS 273 small cell lung): 34 µM
TGI (HOP-62 NSCLC): > 100 µM
TGI (HCT-15 colon): 50.1 µM
TGI (CCRF-CEM leukemia): 23 µM
TGI (DMS 114 small cell lung): > 66.3 µM
TGI (HT29 colon): 41.2 µM
TGI (OVCAR-5 ovarian): > 100 µM
TGI (M14 melanoma): 40.6 µM
TGI (IGROV1 ovarian): > 68.2 µM
TGI (RPMI-8226 leukemia): 6.54 µM
TGI (ACHN renal): > 69.9 µM
TGI (SK-MEL-2 melanoma): > 74.6 µM
TGI (SF-268 CNS): > 94.5 µM
TGI (CAKI-1 renal): 49.9 µM
TGI (TK-10 renal): > 63.9 µM
TGI (UACC-257 melanoma): 51.4 µM
TGI (NCI-H460 lung): > 100 µM
TGI (NCI-H226 lung): > 88.7 µM
TGI (SK-OV-3 ovarian): > 100 µM
TGI (SF-539 CNS): 39.6 µM
TGI (HOP-18 NSCLC): > 100 µM
TGI (UO-31 renal): > 100 µM
TGI (SNB-78 CNS): > 77.6 µM
TGI (786-0 renal): 29.9 µM
TGI (HCT-116 colon): 31.4 µM
TGI (RXF 393 renal): 45.3 µM
TGI (A498 renal): > 100 µM
TGI (LOX IMVI melanoma): > 100 µM
TGI (HCC-2998 colon): > 69.6 µM
TGI (NCI-H522 lung): 9.64 µM
TGI (MOLT-4 leukemia): 27.2 µM
TGI (OVCAR-8 ovarian): 47.1 µM
TGI (OVCAR-4 ovarian): > 61.2 µM
TGI (M19-MEL melanoma): 40.9 µM
TGI (SNB-19 CNS): > 100 µM
TGI (SR leukemia): 27.3 µM
TGI (SK-MEL-5 melanoma): > 62.1 µM
TGI (KM12 colon): 52.5 µM
TGI (SF-295 CNS): > 58.4 µM
TGI (UACC-62 melanoma): 71.4 µM
TGI (SN12C renal): 48.5 µM
TGI (KM20L2 colon): > 100 µM
TGI (COLO 205 colon): 36 µM
TGI (DLD-1 colon): 39.9 µM
TGI (MALME-3M melanoma): 35.6 µM
TGI (EKVX NSCLC): > 93.8 µM
TGI (A549 NSCLC): > 100 µM
TGI (OVCAR-3 ovarian): > 61.4 µM
TGI (K-562 leukemia): > 52.8 µM
TGI (SK-MEL-28 melanoma): 43.6 µM
TGI (SW-620 colon): 37.7 µM
TGI (LXFL 529 NSCLC): 32.6 µM
TGI (NCI-H23 lung): > 61.1 µM
TGI (HOP-92 NSCLC): 56.9 µM
TGI (U251 CNS): > 100 µM
TGI (HL-60(TB) leukemia): 53.5 µM
